Assay results reported in ChEMBL document CHEMBL1201862, “PubChem BioAssay data set” (2004).
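Cells were grown in 96-well plates and exposed to each compound for 48 hours at five concentrations; endpoints were interpolated linearly between bracketing concentrations, or set to the highest concentration if not reached. GI50 marks 50% less growth.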 The source made the active and inactive calls. Rule as the data show it: active = GI50 up to about 1.1 µM and inactive = higher.

Columns and labels:
Test in all cases: NCI-60 cell line screen, 48 h
[1] = test system: 786-0
[2] = test system: ACHN
[3] = test system: BT-549
[4] = test system: DU-145
[5] = test system: HOP-62
[6] = test system: LOX IMVI
[7] = test system: M14
[8] = test system: MCF7
[9] = test system: MDA-MB-435
[10] = test system: MOLT-4
[11] = test system: NCI-H23
[12] = test system: NCI-H522
[13] = test system: RPMI-8226
[14] = test system: SF-539
[15] = test system: SK-OV-3
[16] = test system: U-251
[17] = test system: UACC-257
[18] = test system: HOP-92
[19] = test system: HT-29
[20] = test system: Hs-578T

SMILES | GI50 [1] | GI50 [2] | GI50 [3] | GI50 [4] | GI50 [5] | GI50 [6] | GI50 [7] | GI50 [8] | GI50 [9] | GI50 [10] | GI50 [11] | GI50 [12] | GI50 [13] | GI50 [14] | GI50 [15] | GI50 [16] | GI50 [17] | GI50 [18] | GI50 [19] | GI50 [20]
COc1ccc2c(c1)CC[C@@H]1[C@@H]2CC[C@]2(C)C(=O)/C(=C/c3ccc(C#N)cc3)C[C@@H]12 | > 100 µM (inactive) | > 100 µM (inactive) | > 100 µM (inactive) | > 100 µM (inactive) | 97.1 µM (inactive) | > 100 µM (inactive) | > 100 µM (inactive) | > 100 µM (inactive) | > 100 µM (inactive) | > 100 µM (inactive) | > 100 µM (inactive) | > 100 µM (inactive) | > 100 µM (inactive) | > 100 µM (inactive) | > 100 µM (inactive) | > 100 µM (inactive) | > 100 µM (inactive) |  |  | 
Nc1ncc(Cc2nn3c(COc4ccc(Cl)cc4)nnc3s2)s1 | > 100 µM (inactive) | 0.0543 µM (active) |  | > 100 µM (inactive) | > 100 µM (inactive) |  | > 100 µM (inactive) | > 100 µM (inactive) | > 100 µM (inactive) | > 100 µM (inactive) | > 100 µM (inactive) | > 100 µM (inactive) | > 100 µM (inactive) | > 100 µM (inactive) | > 100 µM (inactive) |  | > 100 µM (inactive) | > 100 µM (inactive) | > 100 µM (inactive) | > 100 µM (inactive)
CC(=O)N1CC(=O)NC1=S | > 100 µM (inactive) | > 100 µM (inactive) |  |  | > 100 µM (inactive) | > 100 µM (inactive) | > 100 µM (inactive) |  |  | > 100 µM (inactive) | > 100 µM (inactive) | > 100 µM (inactive) | > 100 µM (inactive) | > 100 µM (inactive) | > 100 µM (inactive) | > 100 µM (inactive) | > 100 µM (inactive) | > 100 µM (inactive) | > 100 µM (inactive) | 
COC(=O)C1(C(=O)OC)CC2=C(S(=O)(=O)c3ccccc3)C[C@@H](C#N)[C@H]2C1 | > 100 µM (inactive) | > 100 µM (inactive) | 71.8 µM (inactive) | > 100 µM (inactive) | > 100 µM (inactive) | > 100 µM (inactive) | > 100 µM (inactive) | 47.5 µM (inactive) | > 100 µM (inactive) | > 100 µM (inactive) | > 100 µM (inactive) | 43.7 µM (inactive) |  | > 100 µM (inactive) | > 100 µM (inactive) | > 100 µM (inactive) | > 100 µM (inactive) | 28.9 µM (inactive) | > 100 µM (inactive) | 
Nc1nc(Cl)cc(NCCCCCNc2cc(Cl)nc(N)n2)n1 | > 100 µM (inactive) | 15.2 µM (inactive) |  |  | > 100 µM (inactive) | 25.1 µM (inactive) | 88.3 µM (inactive) |  |  | 7.48 µM (inactive) | 55.5 µM (inactive) | 20 µM (inactive) | 33.5 µM (inactive) | > 100 µM (inactive) | > 100 µM (inactive) | > 100 µM (inactive) | 46.8 µM (inactive) | 28.2 µM (inactive) | > 100 µM (inactive) | 
OC(C/C=N/Nc1ccccc1)(C(F)(F)Cl)C(F)(F)Cl | > 10 µM (inactive) | 4.49 µM (inactive) |  | > 10 µM (inactive) | > 10 µM (inactive) | > 10 µM (inactive) | > 10 µM (inactive) | > 10 µM (inactive) | 7.35 µM (inactive) |  | 7.23 µM (inactive) | 4.05 µM (inactive) |  | > 10 µM (inactive) | > 10 µM (inactive) | > 10 µM (inactive) | > 10 µM (inactive) | 7.35 µM (inactive) | > 10 µM (inactive) | 4.66 µM (inactive)
